Source: ChEMBL document CHEMBL4342438, “Discovery of pyrazolone spirocyclohexadienone derivatives with potent antitumor activity” (Bioorg Med Chem Lett, 2020)

Legend:
MDA-MB-231 [1] = experiment: Antiproliferative activity against human MDA-MB-231 cells assessed as reduction in cell growth measured after 72 hrs by CCK8 assay; format: functional, cell-based; conditions: MDA-MB-231, 72 h
A549 = experiment: Antiproliferative activity against human A549 cells assessed as reduction in cell growth measured after 72 hrs by CCK8 assay; format: functional, cell-based; conditions: A549, 72 h
HCT-116 = experiment: Antiproliferative activity against human HCT116 cells assessed as reduction in cell growth measured after 72 hrs by CCK8 assay; format: functional, cell-based; conditions: HCT-116, 72 h
MDA-MB-231 [2] = experiment: Induction of cell cycle arrest in human MDA-MB-231 cells assessed as accumulation at S phase at 2 uM measured after 24 hrs by flow cytometry analysis (reference value: 32.63%); format: functional
MDA-MB-231 [3] = experiment: Induction of cell cycle arrest in human MDA-MB-231 cells assessed as accumulation at G2 phase at 2 uM measured after 24 hrs by flow cytometry analysis (reference value: 23.69%); format: functional
MDA-MB-231 [4] = experiment: Induction of cell cycle arrest in human MDA-MB-231 cells assessed as accumulation at G1 phase at 1 uM measured after 24 hrs by flow cytometry analysis (reference value: 43.68%); format: functional
MDA-MB-231 [5] = experiment: Induction of cell cycle arrest in human MDA-MB-231 cells assessed as accumulation at S phase at 1 uM measured after 24 hrs by flow cytometry analysis (reference value: 32.63%); format: functional
HUVEC = experiment: Cytotoxicity against HUVEC assessed as inhibition of cell growth measured after 72 hrs by CCK8 assay; format: cell-based; conditions: Homo sapiens
MDA-MB-231 [6] = experiment: Induction of apoptosis in human MDA-MB-231 cells assessed as apoptotic cells at 5 uM measured after 48 hrs by annexinV-FITC/propidium iodide staining based flow cytometry analysis (reference value: 5.62%); format: functional
MDA-MB-231 [7] = experiment: Induction of apoptosis in human MDA-MB-231 cells assessed as apoptotic cells at 10 uM measured after 48 hrs by annexinV-FITC/propidium iodide staining based flow cytometry analysis (reference value: 5.62%); format: functional
MDA-MB-231 [8] = experiment: Induction of cell cycle arrest in human MDA-MB-231 cells assessed as accumulation at G2 phase at 1 uM measured after 24 hrs by flow cytometry analysis (reference value: 23.69%); format: functional
MDA-MB-231 [9] = experiment: Induction of apoptosis in human MDA-MB-231 cells assessed as apoptotic cells at 2.5 uM measured after 48 hrs by annexinV-FITC/propidium iodide staining based flow cytometry analysis (reference value: 5.62%); format: functional
MDA-MB-231 [10] = experiment: Induction of cell cycle arrest in human MDA-MB-231 cells assessed as accumulation at G1 phase at 2 uM measured after 24 hrs by flow cytometry analysis (reference value: 43.68%); format: functional
MDA-MB-231 [11] = experiment: Induction of apoptosis in human MDA-MB-231 cells assessed as increase in apoptotic cells measured after 48 hrs by annexinV-FITC/propidium iodide staining based flow cytometry analysis; format: functional, cell-based

| IC50 (MDA-MB-231 [1]) [µM] | IC50 (A549) [µM] | IC50 (HCT-116) [µM] | Structure (SMILES) | other results |
| --- | --- | --- | --- | --- |
| 85.8 | 16.5 | > 100 | CC1=NN(c2ccccc2)C(=O)C12C=CC(=O)C=C2c1cccc(C)c1 (stereo unspecified) |  |
| 46.6 | 46.3 | 16.5 | CC1=NN(c2ccc(C)cc2)C(=O)C12C=CC(=O)C=C2c1ccccc1 (stereo unspecified) |  |
| 14.3 | 33.4 | 10.3 | CC1=NN(c2ccc(Cl)cc2)C(=O)C12C=CC(=O)C=C2c1ccc(C)cc1 (stereo unspecified) |  |
| 26.9 | 38.4 | 13.3 | CC1=NN(c2ccc(Cl)cc2)C(=O)C12C=CC(=O)C=C2c1cccc(C)c1 (stereo unspecified) |  |
| > 100 | > 100 | > 100 | CC1=NN(c2ccc(Cl)cc2)C(=O)C12C=CC(=O)C=C2c1ccccc1 (stereo unspecified) |  |
| 15.9 | 27.4 | 10.6 | CC1=NN(c2ccc(Br)cc2)C(=O)C12C=CC(=O)C=C2c1ccc(C)cc1 (stereo unspecified) |  |
| > 100 | > 100 | > 100 | CC1=NN(c2ccc(Br)cc2)C(=O)C12C=CC(=O)C=C2c1ccccc1 (stereo unspecified) |  |
| 91.9 | 19.3 | 27.1 | CC1=NN(c2ccccc2)C(=O)C12C=CC(=O)C=C2c1ccc(C)cc1 (stereo unspecified) |  |
| 3.82 | 9.05 | 2.4 to 2.89 | CC1=NN(c2cccc(Cl)c2)C(=O)C12C=CC(=O)C=C2c1ccc(C)cc1 (stereo unspecified) | Activity (MDA-MB-231 [2]): 14.27%; Activity (MDA-MB-231 [3]): 17.5%; Activity (MDA-MB-231 [4]): 45.59 - 49.59%; Activity (MDA-MB-231 [5]): 29.18%; IC50 (HUVEC): 5.41 µM; Activity (MDA-MB-231 [6]): 12.2%; Activity (MDA-MB-231 [7]): 47.23%; Activity (MDA-MB-231 [8]): 21.23%; Activity (MDA-MB-231 [9]): 9.7%; Activity (MDA-MB-231 [10]): 68.23%; Activity (MDA-MB-231 [11]): Dose-dependent effect |
| 22.3 | 20.1 | 3.74 | CC1=NN(c2cccc(Cl)c2)C(=O)C12C=CC(=O)C=C2c1cccc(C)c1 (stereo unspecified) |  |
| 5.11 | 37 | 9.71 | CC1=NN(c2ccc(C)cc2)C(=O)C12C=CC(=O)C=C2c1ccc(C)cc1 (stereo unspecified) |  |
| 30.1 | 18.8 | 7 | CC1=NN(c2cccc(Cl)c2)C(=O)C12C=CC(=O)C=C2c1ccccc1 (stereo unspecified) |  |
| 2.89 | 45.4 | > 100 | CC1=NN(c2ccc(Br)cc2)C(=O)C12C=CC(=O)C=C2c1cccc(C)c1 (stereo unspecified) |  |
| 19.4 | 22.5 | 8.34 | CC1=NN(c2ccc(C)cc2)C(=O)C12C=CC(=O)C=C2c1cccc(C)c1 (stereo unspecified) |  |
| 27.4 | 16.5 | 17.8 | CC1=NN(c2ccccc2)C(=O)C12C=CC(=O)C=C2c1ccccc1 (stereo unspecified) |  |
